Biological target: T1, PRL3 (Homo sapiens, UniProt O75365)
T1 construct: gene PTP4A3; residues 1-169 in pET15b, His6 tag with thrombin site, N-terminal Gly-Ser-His extension left; wild type; expressed in E. coli
Test: phosphorylation of catalytic Cys104 followed on Phos-tag SDS-PAGE
Type: biochemical
Settings: no magnesium; 43 µM PRL3, 20 mM HEPES, 100 mM NaCl, 10 mM DTT, pH 7.0; 30 °C and room temperature; estimate from concentration dependence; covalent phosphocysteine formed

T1 sequence (O75365 1-169): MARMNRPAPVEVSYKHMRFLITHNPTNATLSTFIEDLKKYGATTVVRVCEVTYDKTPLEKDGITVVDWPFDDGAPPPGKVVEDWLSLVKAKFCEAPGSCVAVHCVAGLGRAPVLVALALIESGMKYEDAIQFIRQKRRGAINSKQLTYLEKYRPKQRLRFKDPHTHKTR

Km: > 2000 µM
SMILES: Nc1ncnc2c1ncn2[C@@H]1O[C@H](COP(=O)(O)OP(=O)(O)OP(=O)(O)O)[C@@H](O)[C@H]1O [ATP]

Source: article PMC5427921, “PRL3 phosphatase active site is required for binding the putative magnesium transporter CNNM3” (Scientific Reports, 2017)
